From patent US20240051997A1, “SAP AND PEPTIDOMIMETIC COMPOSITIONS FOR REDUCING SYMPTOMS OF INFLAMMATION” (Arch Biosurgery, Inc., priority 2018, published 2024)

Key:
[1] = tested on: kidney inflammation, ED-1 reactivity (macrophage activation); experiment: Acute kidney injury model (stab wound plus cautery), ED-1 immunohistochemistry; format: in vivo, Sprague-Dawley rat; details: rat kidney, 3% solution of EARA-16 or 1% solution of KS
Procedure: The anti-inflammatory effects of EARA-16 (SEQ ID NO: 89) and a RADA-kidney specific peptide conjugate (Ac-(RADA)3CVSVPQAL-CONH2; SEQ ID NO: 413; referred to as KS) were examined. Specifically, the effects of EARA-16 and KS on inflammation caused by burn damage were examined using an acute kidney injury model. Levels of inflammation were assayed through immuno-histochemical ED-1 reactivity (ED-1 serves as a marker of macrophage activation).
Adult Sprague-Dawley rats were anesthetized and their intraperitoneal cavities were opened under aseptic conditions. For each animal, the kidney was exposed and then subjected to a stab wound injury.
Cautery was then performed at the injury site to stop bleeding. After cauterization, the injury site was either left untreated and the animals were closed or the site was treated with a 3% solution of EARA-16 (SEQ ID NO: 89) or a 1% solution of KS (SEQ ID NO: 413). The animals were allowed to survive for up to 14 days. The animals were then sacrificed and their kidneys were harvested and sectioned. An ED-1 antibody was used to determine the level of inflammation and activation of macrophages in the kidney via immunohistochemistry (IHC). For each experimental condition, n=3 (max).
Animals receiving no injury, but in which saline was applied to the kidney in a similar location to that of the experimental animals, were used as controls (n=8).

[2] = tested on: olfactory bulb inflammation, GFAP (reactive astrocytes); experiment: Olfactory bulb injury model (transection), GFAP immunohistochemistry; format: in vivo, Sprague-Dawley rat; details: rat olfactory bulb, days 2-14
Procedure: The anti-inflammatory effects of EARA-16 (SEQ ID NO: 89) and RADA-16 (SEQ ID NO: 1) were examined using an olfactory bulb injury model. Levels of inflammation were assayed through immunohistochemical staining for glial fibrillary acidic protein (GFAP) as an indicator of reactive astrocytes.
In brief, the olfactory bulbs of adult Sprague-Dawley rats were unilaterally transected and the cuts were then treated with either saline as a control, or one of RADA-16 (SEQ ID NO: 1) or EARA-16 (SEQ ID NO: 89) solutions (each used at 1% and 3%). The SAP materials were injected into the cuts post transection at the time of surgery. After 2, 7 or 14 days, the animals were sacrificed.
A more detailed protocol is as follows: adult Sprague-Dawley rats were anesthetized with a mixture of ketamine (80 mg/kg, i. p.) and xylazine (8 mg/kg, i. p.). The head was shaved and a thorough disinfection of the head surface was carried out with iodine 5% solution. The bilateral olfactory bulbs were exposed by drilling two burr holes (2 mm diameter, 8 mm anterior to the bregma) on either side at a distance of 2 mm from the midline of the frontal bone in the region overlying the olfactory bulbs. A cataract knife with a blunted end and one sharpened edge was used for surgery. The cut was performed on the middle of olfactory bulb. The blunted edge of the knife was inserted along the middle line of the olfactory bulb to prevent damage of the sagittal sinus, until the tip of the knife lightly touched the bottom of the brain without penetration of the dura. The knife was then moved laterally to transect the bulb until it reached the lateral edge of the hole. The knife was then rotated and pulled out to have a complete cut of the bulb at lateral side. This procedure was modified from the method described in several previous studies attempting to isolate the olfactory bulb from other parts of the brain (Ahrens & Freeman 2001; Allison 1953; Chaput 1983; Freeman 1968; Koliatsos et al 2004; Munirathinam et al 1997).
After performing the cut, one of the solutions was used to treat the injury site: either 10 μl saline (control group) or the EARA-16 (SEQ ID NO: 89) or RADA-16 (SEQ ID NO: 1) SAP (at a concentration of 1% and 3%) was injected evenly into the wound site using a self-constructed hydraulic pressure injection system without micro syringe. This technique was modified from similar methods as described by Bullier and others (Bullier et al 1980; Fish & Rhoades 1981; Kratskin et al 1997; Meyers & Snow 1981; Price et al 1977; Shipley 1982). Care was taken to control the speed of the injection of the saline or the SAP. After the injection, the wound was closed and the animals were placed in a warm place for recovery before they were brought back to their home cages. […]

[3] = tested on: liver inflammation, ED-1 reactivity (macrophage activation); experiment: Rat liver injury model (punch biopsy), ED-1 immunohistochemistry; format: in vivo, Sprague-Dawley rat; details: 4 mm punch biopsy, all time-points observed, compared to saline or acid controls
Procedure: (§1) The anti-inflammatory effects of EARA-16 (SEQ ID NO: 89) and RADA-16 (SEQ ID NO: 1) SAPs were examined using a liver injury model. Levels of inflammation were assayed through immuno-histochemical ED-1 reactivity (ED-1 serves as a marker of macrophage activation).
(§2) Pigs or adult Sprague-Dawley rats were anesthetized and their intraperitoneal cavities were opened under aseptic conditions. For each animal, the liver was exposed and then subjected to an 8 mm (pig) or 4 mm (rat) punch biopsy.
(§3) The punch sites were then cauterized or treated with acid (for pH control), saline, or RADA-16 (SEQ ID NO: 1) or EARA-16 (SEQ ID NO: 89) solutions. The animals were allowed to survive for up to 14 days. The animals were then sacrificed and their livers were harvested and sectioned. An ED-1 antibody was used to determine the level of inflammation and activation of macrophages in the liver via immunohistochemistry (IHC).

[4] = tested on: liver inflammation, ED-1 reactivity (macrophage activation); experiment: Pig liver injury model (punch biopsy), ED-1 immunohistochemistry; format: in vivo; details: 8 mm punch biopsy, day 7 post-treatment, compared to saline or cauterization controls
Procedure: as §1, §2, §3

Substance | reduction in inflammation compared to cautery only (ED-1 IHC) ([1]; 7-day survival) [%] | reduction in inflammation compared to cautery only (ED-1 IHC) ([1]; 14-day survival) [%] | time course of reactive astrocyte activation / inflammation (GFAP) ([2]; 1% solution) | time course of reactive astrocyte activation / inflammation (GFAP) ([2]; 3% solution) | levels of inflammation in liver (ED-1 IHC) [3] | levels of inflammation in liver (ED-1 IHC) [4]
Ac-(RADA)3CVSVPQAL-CONH2 (Ac-RADARADARADACVSVPQAL-NH2) [KS, RADA-kidney specific peptide conjugate] | 68 | 66 | – | – | – | –
EARAEARAEARAEARA [EARA-16, self-assembling peptide] | 80 | 66 | increased activation of reactive astrocytes on day 7 which subsequently reduced by day 14 | increasing inflammation levels, but at a much slower rate than the saline controls | markedly reduced the levels of inflammation | markedly reduced the levels of inflammation
